Experimental data from patent US6852708B2, “Use of hyaluronic acid and forms to prevent the narrowing of the vascular walls” (Jagotec AG, priority 1991, dated 2005).
“And” between values parts separate entries of the source, which are not always exact repeats. Equal entries are not always repeated.

Assays:
injured carotid arteries = assay: Balloon angioplasty in rabbits perfused with hyaluronan, carotid artery histology; type: in vivo, rabbit; conditions: perfused with hyaluronan 5 mg/ml just prior to injury; for adherence / accumulation of white cells on the endothelium of the injured carotid artery: 2, 24, 48 hours after injury
Procedure: 10 rabbits were anesthetized and balloon angioplasty was performed on them. The rabbits were perfused with hyaluronan (5 mg/ml) or buffer alone and allowed their recover. […] Sections were stained with hematoxylin or with anti RHAMM antibodies. 10 sections of each treatment were analyzed.

[1] = tested on: balloon catheter injured common carotid artery; assay: Balloon catheter injury of the common carotid artery in cholesterol-fed rabbits, hyaluronan i.v. bolus then daily s.c.; type: in vivo, New Zealand White rabbit; conditions: for reduction in mean intimal macrophage content: versus cholesterol-diet alone, p<0.02; for reduction of the absolute neo-intimal response to injury (absolute size of the neo-intima): versus cholesterol-fed group given saline, p<0.05, 15 mg/kg/day
Text: Juvenile New Zealand White rabbits (3 to 6 months old), weighing approximately 2.5 kg were obtained from Rosemead Rabbit Co. Essex, UK) and housed in the Biological Services Unit of St. bartholomew's Hospital Medical College, London.
After one week on a commercial rabbit chow diet (Scientific Diet Services, Essex, UK) the animals were started on a 2% cholesterol diet (Scientific Diet Services, Essex, UK). Water was allowed ad libitum.
One week after starting the above diet, animals were anaesthetized with intramuscular xylazine [Rompun (Bayer, Suffolk, UK); 40 mg/kg] and ketamine [Vetalar (Parke-Davis, UK); 10 mg/kg]. The left carotid bifurcation was exposed through a paramedian incision, and the external carotid artery prepared for balloon injury. The animals were injected with a bolus of sterile sodium hyaluronate (15 mg/kg) referred to at page 15, line 31 to page 16 line 1 (Hyal Pharmaceutical Corporation, Ontario, Canada) or saline via a marginal ear vein. Endothelium was then removed from the entire left common carotid artery by the passage of an inflated 2F French Fogarty Embolectomy catheter as previously described (Ferns et al 1992). The catheter was then withdrawn, the external carotid tied off, and the skin and deep fascia closed with chromic catgut and discontinuous 3-O silk. The validity of the procedure for endothelial cell denudation was assessed by scanning electron microscopy of a number of carotids from animals killed immediately post-operatively. Animals received a further subcutaneous injection of hyaluronic acid (15 mg/kg) or saline post-operatively, and daily until sacrifice.
Blood for serum cholesterol was collected from each animal before the start of each experimental diet, peri-operatively and at the time of sacrifice. Samples were separated by centrifugation and stored at −20° C. prior to analysis.
Two weeks after carotid de-endothelialization, the animals were sedated with intramuscular xylazine and ketamine and given an intravenous injection of 2% Evans blue in isotonic phosphate-buffered saline. Five minutes later, an abdominal incision was made to access the abdominal aorta for insertion of a cannula connected to a perfusion apparatus, and both jugular veins exposed for perfusion run-off. The animals were then killed by an overdose of anaesthetic and perfused with buffered saline at a rate of 100 ml/minute/kg body weight. When the run-off was clear, the saline was replaced with 4% paraformaldehyde in isotonic PBS at the same flow rate. Perfusion was continued for 15 minutes. After fixation in situ, the denuded and contralateral carotids were dissected free and cleaned of adherent fat and fascia. The segments were immediately rinsed in PBS and placed in fresh 4% paraformaldehyde overnight for paraffin embedding. Some segments were placed into 2.5% glutaraldehyde for subsequent processing for electron microscopy.
Five micron sections were taken from the blue (de-endothelialised) segments of carotid artery, for haematoxylin and eosin (H&E) staining. Adjacent sections were cut for elastin staining using Verhoeff-Van Geisen (VVG) stain, and immunostaining using monoclonal antibodies directed against rabbit alveolar macrophages (RAM-11) and smooth muscle cell actin (HHF-35), as described by Tsukada et al. (1986).
Serum cholesterol levels were measured by the CHOD-POD enzymatic-colorimetric method using a Cholesterol C-system kit (Boehringer Corp., Lewes, UK) and a Vitalab 100 autoanalyzer with Precipath U and Precinorm U (Boehringer Corp., Lewes, UK) quality control material.
The intimal and medial thickness of each segment was measured using a Zeiss Axioskop microscope equipped with a X10 Achroplan objective, a digitizing pad and an IBM 55SX PC containing a VIDS V interface card and VIDS V software. Measurements were performed in duplicate on three mid-carotid VVG stained sections. […]

[2] = tested on: balloon angioplasty injured carotid artery; assay: Balloon angioplasty injury in cholesterol-fed rabbits, hyaluronan injections administered subcutaneously; type: in vivo, rabbit
Procedure: Tests were conducted with cholesterol-fed rabbits and the following was found. The tests were of the same nature except that the injections of the hyaluronan (sodium hyaluronate) were administered subcutaneously.

Human neutrophils = assay: Chemotaxis of neutrophils to IL-8; type: cell-based; conditions: 100 ng/mL IL-8; peptide 2 μg/mL; FIG. 10
Procedure: (§1) The HA-binding region of RHAMM consists of two 10 amino acid domains located close to the carboxy terminus of the protein^15. A peptide mimicking Domain I (amino acides^401-411)—[…]—and a scrambled peptide consisting of the same amino acids arranged in a random manner-———-were synthesized at the Manitoba Institute of Cell Biology. Both peptides were used at a final concentration of 2 μg/mL in locomotion assays.
Human neutrophils were obtained from peripheral blood samples of normal volunteers and mixed in ACD solution (0.085) M trisodium citrate, 0.065 M citric acid, 2% Dextrose) to prevent clotting. 5% Dextran was added and the separated plasma and white blood cells were removed. The cells were washed twice in PBS, pH 7.2 and a Ficoll gradient was used to separate the lymphocytes. The isolated neutrophils were then washed and resuspended in PBS. […]
(§2) Chemotaxis was stimulated using either bacterial endotoxin-activated mouse serum (AS), prepared according to Stevenson et al.^18 for macrophage cell lines, or 100 ng/mL interleukin-8 (IL-8) for meutrophils. […] The number of displaced cells was quantified by the addition of 3-(4.5-dimethylthiazol-2-yl)-2.5-[…] tetrazolium bromide (MTT) to a final concentration of 250 μg/mL that was incubated at 37° C. for 4 hours. […] The plate was analyzed within 2 hours on a microtiter plate ELISA reader with a filter of 540 nm. […]

[3] = tested on: macrophage cell line WEHI-3; assay: Chemotaxis of macrophage cell line WEHI-3 to endotoxin-activated mouse serum (complement); type: cell-based; conditions: peptide 2 μg/mL; FIG. 11
Procedure: as §1
(§3) The macrophage cell lines S1 and WEHI-3 were used to analyze the effect of antibodies and synthetic peptide on macrophage chemotaxis to endotoxin-activated mouse serum (AS). These cell lines were also maintained in DME with 10% FCS and 20 mM Hepes buffer, pH 7.2 at 37° C. and 5% CO2 in air.
as §2, with “meutrophils. Heat-inactivated serum (56° C. for 20 minutes) or medium served as negative controls respectively.” for “meutrophils.”

macrophage cell line S1 = assay: Chemotaxis of macrophage cell line S1 to endotoxin-activated mouse serum (complement); type: cell-based; conditions: peptide 2 μg/mL; FIG. 11
Procedure: as §1, §3
as §2, with “meutrophils. Heat-inactivated serum (56° C. for 20 minutes) or medium served as negative controls respectively.” for “meutrophils.”

[4] = tested on: smooth muscle cells isolated from bovine aorta; assay: Smooth muscle cell migration after wounding of monolayers (timelapse cinemicrography); type: cell-based
Procedure: as §1
Smooth muscles cells were isolated from bovine aorta as described previously for rate aorta^17 and were maintained in Dulbecco's Modified Eagles medium (DME) supplemented with 10% fetal calf serum (FCS) and 20 mM Hepes buffer, pH 7.2 at 37° C. and 5% CO2 in air. All experiments were performed using defined medium [DM, Dulbecco's Modified Eagles medium with 20 mM HEPES buffer, pH 7.2, 0.5 U/mL insulin (beef and pork zinc suspension, Novo Laboratories Ltd., Willowdale, Ontario) and 4 μg/mL transferrin (Sigma Chemical Co., St. Louis, Mo.)], and the culture medium was replaced 24 hours before filming. […]
Injured cell monlayers were monitored for motility using an 1 M 35 Zeiss inverted microscope to which a video camera (Hamamatsu CCD, Inc., Japan) was attached. […] This program allows quantification of nuclear displacement from a sequence of digitalized images. The motility of thirty cells in each experiment was followed for a period of 24 hours with mean velocities calculated every hour.

[5] = MEAN of HYAL + CHOL group, N=15, 2 weeks after injury
[6] = hyaluronan-treated group, 2 weeks after injury
[7] = individual animals of the HYAL + CHOL group, 2 weeks after injury
[8] = mean ± SEM, n=15, Hyal 15 mg/kg/d
[9] = HYAL + CHOL group, n=15, s.c. injections

sodium hyaluronate was tested, and the “endothelial cell layer of the injured carotid artery (histology)” value (injured carotid arteries) was “intact endothelial cell layer”, the “adherence / accumulation of white cells on the endothelium of the injured carotid artery” value (injured carotid arteries; listed as Hyaluronan) was “abolished” and the “adherence / accumulation of white cells on the endothelium of the injured carotid artery” value (injured carotid arteries; listed as hyaluronan) was “do not exhibit accumulations of white cells”. The “intimal thickening in the cholesterol-fed rabbits” value ([1]; 15 mg/kg i.v. immediately pre-operatively, then daily s.c. for fourteen days) was “significantly inhibited”, the “neo-intimal macrophage content in the cholesterol-fed rabbits” value ([1]; 15 mg/kg/d, 2 weeks after injury) was “reduced” and the “mean medial thickness compared with the control animals” value ([1]; 2 weeks after injury, p>0.05) was “did not differ significantly”. The “Body Weight, Sacrifice” value ([1]; MEAN of HYAL + CHOL group, N=15) was 2.64 kg, the I/M [1, 5] was 0.59 and the INTIMA [1, 5] was 65.79 microns. For the same substance, the “Intimal Macrophage Content (%)” value [1, 5] was 3.22%, the MEDIA [1, 5] was 105.01 microns and the “Mean weight, Sacrifice” value ([1]; group mean ± SEM, n=15, at sacrifice, Hyal 15 mg/kg/d) was 2.64 ± 0.09 kg. The “intima: media ratio” value [1, 6] was 0.59±0.011, the “mean intimal macrophage content” value [1, 6] was 3.22±1.05% and the I/M [1, 7] was 0.68 and 1.10 and 0.21 and 0.42 and 0.46 and 0.30 and 1.03 and 0.66 and 0.24 and 1.61 and 0.81 and 0.10 and 0.72 and 0.08 and 0.45. The INTIMA [1, 7] was 82.60 microns and 212.00 microns and 22.00 microns and 55.62 microns and 42.10 microns and 17.44 microns and 76.40 microns and 48.23 microns and 26.63 microns and 187.50 microns and 112.22 microns and 8.44 microns and 84.87 microns and 8.38 microns and 2.35 microns, the “Intimal Macrophage Content (%)” value [1, 7] was 6.90% and 13.20% and 3.10% and 5.50% and 0.17% and 1.10% and 0.40% (2×) and 0.00% (2×) and 1.70% and 7.80% and 0.50% and 4.70% and 2.90% and the MEDIA [1, 7] was 118.90 microns and 200.00 microns and 109.00 microns and 139.14 microns and 91.10 microns and 78.28 microns and 74.70 microns and 74.65 microns and 111.50 microns and 118.72 microns and 143.77 microns and 83.43 microns and 120.62 microns and 105.57 microns and 5.81 microns. The “Body Weight, Sacrifice” value ([1]; individual animals of the HYAL + CHOL group, at sacrifice) was 2.60 kg (2×) and 2.89 kg and 2.91 kg and 3.40 kg and 2.88 kg and 2.81 kg (2×) and 2.25 kg and 2.74 kg and 2.35 kg and 2.15 kg and 2.40 kg and 2.38 kg and 2.42 kg, the “Body Weight, Start” value ([1]; individual animals of the HYAL + CHOL group, before treatment) was 2.25 kg and the “Mean Intimal thickness 2 weeks after injury” value [1, 8] was 0.068 ± 0.016 mm. The “Mean intima/media ratio 2 weeks after injury” value [1, 8] was 0.59 ± 0.11, the “Mean intimal macrophage content 2 weeks after injury (% of total cell number)” value [1, 8] was 3.22 ± 0.98% and the “gain in body weight over the three week experimental period” value ([1]; rabbit, in vivo) was “approximately 30%”. The “reduction in mean intimal macrophage content” value ([1]; 2 weeks after injury, listed as Hyaluronan) was 62%, the “reduction in mean intimal macrophage content” value ([1]; 2 weeks after injury, listed as hyaluronan) was “approximately 62%” and the “reduction of the intima: media ratio” value ([1]; versus cholesterol-fed control group, 2 weeks after injury, 15 mg/kg/d) was 35%. The “reduction of the absolute neo-intimal response to injury (absolute size of the neo-intima)” value ([1]; 2 weeks after injury, 15 mg/kg/d, listed as Hyaluronan) was 42%, the “reduction of the absolute neo-intimal response to injury (absolute size of the neo-intima)” value ([1]; 2 weeks after injury, 15 mg/kg/d, listed as hyaluronan) was “approximately 46%” and the “mean I:M ratio” value [2, 9] was 0.591. For the same substance, the “mean absolute intimal thickness” value [2, 9] was 95.7 μm and the “neo-intimal thickness following balloon angioplasty injury” value ([2]; cholesterol-fed rabbits, FIGS. 20 and 21) was “significantly inhibited”.
With YKQKIKHVVKLK [peptide aa^401-411] the “chemotaxis of neutrophils to IL-8” value (Human neutrophils) was “significantly inhibited”, the “chemotaxis of WEHI-3 to endotoxin-activated mouse serum” value [3] was “inhibited” and the “chemotaxis of S1 to endotoxin-activated mouse serum” value (macrophage cell line S1) was “inhibited”. For the same substance, the “locomotion of smooth muscle cells responding to injury” value ([4]; peptides 100 ng/plate, FIG. 6) was “inhibits” and the “rate of translocation of smooth muscle cells following wounding of monolayers” value ([4]; peptides 2 μg/mL, 5 hours after wounding, FIG. 12) was “significantly reduced”.
